pKi: −log10 of the molar value.
Target: cAMP and cAMP-inhibited cGMP 3',5'-cyclic phosphodiesterase 10A (Homo sapiens, UniProt Q9Y233)
Assay: Inhibition of human PDE10A2 transfected in human AD293 cells cytosolic fraction using cAMP as substrate by fluorescence polarization assay

Sequence of cAMP and cAMP-inhibited cGMP 3',5'-cyclic phosphodiesterase 10A (Q9Y233 whole entry): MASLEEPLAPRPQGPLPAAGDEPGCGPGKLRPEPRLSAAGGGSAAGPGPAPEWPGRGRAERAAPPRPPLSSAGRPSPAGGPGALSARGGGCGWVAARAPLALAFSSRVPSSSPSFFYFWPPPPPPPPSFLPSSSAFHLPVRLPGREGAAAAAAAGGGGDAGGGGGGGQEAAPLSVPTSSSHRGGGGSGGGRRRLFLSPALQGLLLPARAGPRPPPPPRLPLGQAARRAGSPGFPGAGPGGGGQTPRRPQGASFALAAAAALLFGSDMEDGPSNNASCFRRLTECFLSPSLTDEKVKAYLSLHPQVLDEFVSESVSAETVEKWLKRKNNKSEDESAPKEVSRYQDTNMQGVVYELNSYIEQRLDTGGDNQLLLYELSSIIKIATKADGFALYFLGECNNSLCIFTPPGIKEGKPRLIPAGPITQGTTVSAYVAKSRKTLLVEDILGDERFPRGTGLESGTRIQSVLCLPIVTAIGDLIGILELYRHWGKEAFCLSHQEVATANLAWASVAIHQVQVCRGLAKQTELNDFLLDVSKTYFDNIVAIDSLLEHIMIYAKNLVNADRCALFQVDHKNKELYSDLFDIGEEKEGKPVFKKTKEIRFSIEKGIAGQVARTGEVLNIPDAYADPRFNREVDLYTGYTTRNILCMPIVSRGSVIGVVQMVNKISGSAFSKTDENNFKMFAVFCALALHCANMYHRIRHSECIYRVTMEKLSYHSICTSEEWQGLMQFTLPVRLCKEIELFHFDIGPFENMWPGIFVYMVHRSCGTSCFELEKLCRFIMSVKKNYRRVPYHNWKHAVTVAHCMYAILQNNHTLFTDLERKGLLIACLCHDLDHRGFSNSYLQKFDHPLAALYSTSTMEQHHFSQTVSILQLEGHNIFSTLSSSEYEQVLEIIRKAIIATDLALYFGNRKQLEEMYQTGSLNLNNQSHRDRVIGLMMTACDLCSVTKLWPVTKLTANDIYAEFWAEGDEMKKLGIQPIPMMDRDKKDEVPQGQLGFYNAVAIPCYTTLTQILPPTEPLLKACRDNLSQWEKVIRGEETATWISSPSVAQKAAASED

Cc1cnc(OC[C@H]2C[C@@H]2c2ccccn2)cc1NCc1cnn(C)c1
pKi: 8.11

— BindingDB's records for doi:10.1021/acs.jmedchem.2c01521 (Merck, 2023)
